Structures are written as SMILES. Values after ≈ are worked out from the molar mass of the structure shown.

The test system of assay [1] is S. aureus. Briefly: Known antibacterial activity of literature chalcones used for QSAR. Type of assay: cell-based, Staphylococcus aureus. The settings on record: Aexp = 0.1 + log (k/MIC), k = 1.250. How it is done:
The QSAR studies were carried out on 48 chalcones, including 10 synthesized azulenyl-chalcones, in order to identify the physicochemical parameter responsible for their antimicrobial activity against Staphylococcus aureus. The geometry optimization of the molecules was completed using PCModel and MOPAC programs. The descriptors were calculated using MOPAC, PRECLAV, and DRAGON software, and the descriptors and QSAR equations were selected using the PRECLAV algorithm. The best QSAR model was chosen based on the statistical parameters such as the square of the correlation coefficient (r^2), the Fischer’s value of significance (F), and the standard error of estimate(s).
Quantitative structure−activity relationship (QSAR) studies involving 38 chalcone derivatives (Table 7) with known antibacterial activity against S. aureus were developed. These studies were based upon observed activity and molecular descriptors. […] Two QSAR studies were performed: (i) one in which all 48 molecules were included in the calibration set and (ii) another with an external validation test. For the latter, 10 molecules were randomly chosen to be part of the validation test, whereas the rest were part of the calibration set. The result of the external validation depends strongly, among other things, on the procedures for the extraction of the calibration and validation sets from the initial database.

The test system of assay [2] is S. aureus. The arrangement: method as in PMID 15801857, PMID 19275612, PMID 15142563. To be noted: literature chalcones Nr. Crtl. 1-38 of Table 7; cited from earlier work.

One may read the MIC as the lowest concentration found to suppress growth. On to `COc1cc(/C=C/C(=O)c2ccccc2)ccc1O` [Nr. Crtl. 1], for which the Aexp in the assay with S. aureus [1] came to 0.498. Besides, in the assay on S. aureus [2], the MIC was 500 µg/mL (≈ 1970 µM).

On to `COc1cc(/C=C/C(=O)c2ccc(Cl)cc2)cc(OC)c1O` [Nr. Crtl. 2], for which, in the assay on S. aureus [1], the Aexp was 0.498. The MIC in the assay with S. aureus [2] is 500 µg/mL (≈ 1570 µM).

Turning to `O=C(/C=C/c1ccc(Cl)cc1Cl)c1ccc(O)c(F)c1` [Nr. Crtl. 3], in the assay with S. aureus [1], the Aexp is 0.720. In addition, the minimal inhibitory concentration (MIC) with S. aureus [2] was 300 µg/mL (≈ 964 µM).

As for `O=C(O)c1ccc(C(=O)/C=C/c2ccccc2C(F)(F)F)cc1` [Nr. Crtl. 4], the Aexp in the assay on S. aureus [1] amounted to 0.720. Further, in the assay with S. aureus [2], the MIC was 300 µg/mL (≈ 937 µM).

With `O=C(O)c1ccc(C(=O)/C=C/c2cccc([N+](=O)[O-])c2)cc1` [Nr. Crtl. 5], the Aexp in the assay on S. aureus [1] is reported as 0.720. For the same compound, in the assay with S. aureus [2], the minimal inhibitory concentration (MIC) was 300 µg/mL (≈ 1010 µM).

For the compound `O=C(/C=C/c1cccc(O)c1)c1ccccc1` [Nr. Crtl. 6], the Aexp with S. aureus [1] worked out at 0.799. Moreover, the MIC in the assay on S. aureus [2] is 250 µg/mL (≈ 1110 µM).

`COc1ccc(/C=C/C(=O)c2ccccc2)cc1O` [Nr. Crtl. 7]: in the assay on S. aureus [1], the Aexp is recorded as 0.799. The MIC in the assay on S. aureus [2] was 250 µg/mL (≈ 983 µM).

For `COc1cccc(/C=C/C(=O)c2ccc(Cl)cc2)c1O` [Nr. Crtl. 8], in the assay on S. aureus [1], the Aexp is 0.799. For the same compound, the MIC with S. aureus [2] is 250 µg/mL (≈ 866 µM).

Consider `COc1cc(/C=C/C(=O)c2ccc(Cl)cc2)ccc1O` [Nr. Crtl. 9], for which the Aexp in the assay with S. aureus [1] is reported as 0.799. The MIC in the assay with S. aureus [2] is 250 µg/mL (≈ 866 µM).

Consider `O=C(/C=C/c1ccc(Cl)cc1Cl)c1cc(F)c(O)c(F)c1` [Nr. Crtl. 10], for which the Aexp with S. aureus [1] came out at 1.021. In addition, in the assay with S. aureus [2], the MIC is 150 µg/mL (≈ 456 µM).

`O=C(O)c1ccc(C(=O)/C=C/c2ccc(C(F)(F)F)cc2)cc1` [Nr. Crtl. 11]: the Aexp with S. aureus [1] was 1.021. Also, the minimum inhibitory concentration (MIC) in the assay on S. aureus [2] was 150 µg/mL (≈ 468 µM).

Consider `O=C(O)c1ccc(C(=O)/C=C/c2ccc(Cl)cc2)cc1` [Nr. Crtl. 12], for which the Aexp with S. aureus [1] stood at 1.021. Also, the minimal inhibitory concentration (MIC) in the assay on S. aureus [2] was 150 µg/mL (≈ 523 µM).

For `O=C(O)c1ccc(C(=O)/C=C/c2ccccc2Cl)cc1` [Nr. Crtl. 13], the Aexp with S. aureus [1] came to 1.021. The MIC in the assay with S. aureus [2] was 150 µg/mL (≈ 523 µM).

On to `O=C(O)c1ccc(C(=O)/C=C/c2ccccc2Br)cc1` [Nr. Crtl. 14], for which the Aexp in the assay on S. aureus [1] came to 1.021. Moreover, the minimal inhibitory concentration (MIC) with S. aureus [2] was 150 µg/mL (≈ 453 µM).

Take `O=C(O)c1ccc(C(=O)/C=C/c2cc(F)cc(F)c2)cc1` [Nr. Crtl. 15]: in the assay on S. aureus [1], the Aexp came to 1.021. In addition, in the assay with S. aureus [2], the MIC is 150 µg/mL (≈ 520 µM).

For `O=C(/C=C/c1ccc(O)cc1)c1ccccc1` [Nr. Crtl. 16], in the assay on S. aureus [1], the Aexp is 1.100. In the assay with S. aureus [2], the MIC is 125 µg/mL (≈ 557 µM).

As for `O=C(/C=C/c1ccc(O)c(O)c1)c1ccccc1` [Nr. Crtl. 17], in the assay with S. aureus [1], the Aexp is 1.100. Moreover, the MIC with S. aureus [2] is 125 µg/mL (≈ 520 µM).

Take `COc1cccc(/C=C/C(=O)c2ccccc2)c1O` [Nr. Crtl. 18]: the Aexp in the assay on S. aureus [1] is reported as 1.100. Besides, in the assay on S. aureus [2], the MIC is 125 µg/mL (≈ 492 µM).

Consider `O=C(/C=C/c1ccccc1O)c1ccc(Cl)cc1` [Nr. Crtl. 19], for which, in the assay on S. aureus [1], the Aexp is reported as 1.100. Besides, in the assay on S. aureus [2], the minimal inhibitory concentration (MIC) is 125 µg/mL (≈ 483 µM).

As to `O=C(/C=C/c1cccc(O)c1)c1ccc(Cl)cc1` [Nr. Crtl. 20], the Aexp with S. aureus [1] worked out at 1.100. Further, the MIC in the assay with S. aureus [2] was 125 µg/mL (≈ 483 µM).

Consider `O=C(/C=C/c1ccc(O)cc1)c1ccc(Cl)cc1` [Nr. Crtl. 21], for which, in the assay with S. aureus [1], the Aexp is reported as 1.100. Also, the minimal inhibitory concentration (MIC) in the assay with S. aureus [2] is 125 µg/mL (≈ 483 µM).

Consider `O=C(/C=C/c1ccc(O)c(O)c1)c1ccc(Cl)cc1` [Nr. Crtl. 22], for which, in the assay with S. aureus [1], the Aexp is given as 1.100. In addition, in the assay on S. aureus [2], the MIC was 125 µg/mL (≈ 455 µM).

Take `O=C(O)c1ccc(C(=O)/C=C/c2cccc(Cl)c2)cc1` [Nr. Crtl. 23]: the Aexp in the assay with S. aureus [1] is 1.322. In addition, the MIC with S. aureus [2] is 75 µg/mL (≈ 262 µM).

With `O=C(O)c1ccc(C(=O)/C=C/c2cccc(Br)c2)cc1` [Nr. Crtl. 24], the Aexp in the assay on S. aureus [1] was found to be 1.322. In the assay on S. aureus [2], the MIC is 75 µg/mL (≈ 226 µM).

For `Cc1cc(C)cc(/C=C/C(=O)c2ccc(C(=O)O)cc2)c1` [Nr. Crtl. 25], the Aexp in the assay with S. aureus [1] is 1.322. In the assay with S. aureus [2], the MIC was 75 µg/mL (≈ 268 µM).

For `COc1ccc(/C=C/C(=O)c2ccc(Cl)cc2)cc1O` [Nr. Crtl. 26], the Aexp in the assay with S. aureus [1] was determined as 1.401. Besides, in the assay with S. aureus [2], the MIC is 62.5 µg/mL (≈ 216 µM).

For the compound `O=C(/C=C/c1ccccc1O)c1ccccc1` [Nr. Crtl. 27], the Aexp in the assay with S. aureus [1] came out at 1.401. In the assay with S. aureus [2], the minimum inhibitory concentration (MIC) was 62.5 µg/mL (≈ 279 µM).

For the compound `O=C(O)c1ccc(C(=O)/C=C/c2cccc(C(F)(F)F)c2)cc1` [Nr. Crtl. 28], the Aexp in the assay on S. aureus [1] worked out at 1.595. In the assay with S. aureus [2], the minimal inhibitory concentration (MIC) was 40 µg/mL (≈ 125 µM).

On to `O=C(O)c1ccc(C(=O)/C=C/c2cc(Cl)cc(Cl)c2)cc1` [Nr. Crtl. 29], for which the Aexp in the assay with S. aureus [1] is listed as 1.595. Besides, the MIC in the assay with S. aureus [2] was 40 µg/mL (≈ 125 µM).

For `O=C(O)c1ccc(C(=O)/C=C/c2ccc(Cl)cc2Cl)cc1` [Nr. Crtl. 30], the Aexp in the assay with S. aureus [1] was found to be 1.595. Also, in the assay on S. aureus [2], the minimum inhibitory concentration (MIC) is 40 µg/mL (≈ 125 µM).

As to `O=C(/C=C/c1ccc(Cl)cc1Cl)c1ccc(O)cc1` [Nr. Crtl. 31], the Aexp with S. aureus [1] came out at 1.896. Besides, the MIC with S. aureus [2] was 20 µg/mL (≈ 68.2 µM).

`O=C(/C=C/c1ccc(Cl)cc1Cl)c1ccc(O)cc1F` [Nr. Crtl. 32]: the Aexp in the assay with S. aureus [1] worked out at 1.896. The MIC in the assay with S. aureus [2] was 20 µg/mL (≈ 64.3 µM).

For `O=C(/C=C/c1cccc(Br)c1)c1ccc(O)cc1` [Nr. Crtl. 33], in the assay with S. aureus [1], the Aexp amounted to 1.896. For the same compound, the MIC with S. aureus [2] was 20 µg/mL (≈ 66 µM).

For the compound `O=C(/C=C/c1cccc(Cl)c1Cl)c1ccc(O)cc1` [Nr. Crtl. 34], the Aexp in the assay with S. aureus [1] was 2.021. The MIC in the assay on S. aureus [2] is 15 µg/mL (≈ 51.2 µM).

`O=C(/C=C/c1c(Cl)ccc(Cl)c1Cl)c1ccc(O)cc1` [Nr. Crtl. 35]: in the assay on S. aureus [1], the Aexp amounted to 2.197. In the assay on S. aureus [2], the MIC was 10 µg/mL (≈ 30.5 µM).

`O=C(/C=C/c1cc(C(F)(F)F)cc(C(F)(F)F)c1)c1ccc(O)cc1` [Nr. Crtl. 36]: in the assay with S. aureus [1], the Aexp came out at 2.720. For the same compound, the MIC in the assay with S. aureus [2] is 3 µg/mL (≈ 8.33 µM).

`O=C(O)c1ccc(C(=O)/C=C/c2cc(C(F)(F)F)cc(C(F)(F)F)c2)cc1` [Nr. Crtl. 37]: in the assay with S. aureus [1], the Aexp was 2.896. Further, in the assay on S. aureus [2], the MIC is 2 µg/mL (≈ 5.15 µM).

For `O=C(O)c1ccc(C(=O)/C=C/c2cc(Br)cc(Br)c2)cc1` [Nr. Crtl. 38], the Aexp with S. aureus [1] stood at 2.896. For the same compound, in the assay with S. aureus [2], the MIC is 2 µg/mL (≈ 4.88 µM).

Source of the values: PMC8911025, “Design, Synthesis, and Biological Evaluation of New Azulene-Containing Chalcones” (Materials, 2022).
